Source: patent US20220402950A1, “SUBSTITUTED BENZIMIDAZOLES AS PAD4 INHIBITORS” (BRISTOL-MYERS SQUIBB COMPANY, priority 2018, published 2022)

Biological target: human PAD4 (hPAD4) (Homo sapiens, UniProt Q9UM07)
Assay: RFMS Human PAD4 Functional Assay
Format: biochemical
Conditions: hPAD4 RFMS IC50, human PAD4, rapid-fire mass spectrum (RFMS) assay; 5 nM hPAD4, 250 μM BAEE
Experimental: RFMS Human PAD4 Functional Assay:
Compounds were solubilized in 100% DMSO to achieve a 10 mM compound concentration. Compound stock solutions were stored at RT. A series of dilutions were prepared in DMSO and mixed 8 times with 20 μL mixing volume. Final top concentration of compound in the assay is 50 μM.
0.13 μL of compound solution was added to 13 μL of 10 nM PAD4 in assay buffer. After 30 min 13 μl of 500 μM of BAEE was added in 25 mM hepes, pH 7.5, 5 mM NaCl, 1 mM DTT, 0.2 mg/ml BSA, 0.01% CHAPS, 50 μM Calcium, 5 μM TPEN was added and the reaction incubated for 90 min at 37° C. The enzymatic reaction was quenched by addition of 15 μl of 6.1N TCA, 100% Final Concentration is 20%, 35 μl of 8.5 mM phenyl glyoxal (final concentration 4 mM) is then added and the reaction is incubated for 30 min at 37° C.
After 30 minutes the plates are spun down to remove all precipitate. The enzyme reaction was quenched with an equal volume of methanol containing internal standard (modified citrulline). Samples were loaded onto the Rapid Fire RF300 system (Agilent) wherein they were first sipped for 1000 ms and then directly loaded to a C18 separations cartridge using a mixture of acetonitrile containing 0.01% formic acid for 3000 ms desalting. The flow rate of the mobile phase was 1.5 ml/min.
The dwell time for each transition was set at 200 ms, and the ESI voltage was used at 5500 with a source temperature of 400° C. Extracted ion peaks for each transition were integrated using the Rapid Fire Integrator software. Peak area of analyte was normalized with internal standard.).

Chain of human PAD4 (hPAD4) (Q9UM07 whole entry): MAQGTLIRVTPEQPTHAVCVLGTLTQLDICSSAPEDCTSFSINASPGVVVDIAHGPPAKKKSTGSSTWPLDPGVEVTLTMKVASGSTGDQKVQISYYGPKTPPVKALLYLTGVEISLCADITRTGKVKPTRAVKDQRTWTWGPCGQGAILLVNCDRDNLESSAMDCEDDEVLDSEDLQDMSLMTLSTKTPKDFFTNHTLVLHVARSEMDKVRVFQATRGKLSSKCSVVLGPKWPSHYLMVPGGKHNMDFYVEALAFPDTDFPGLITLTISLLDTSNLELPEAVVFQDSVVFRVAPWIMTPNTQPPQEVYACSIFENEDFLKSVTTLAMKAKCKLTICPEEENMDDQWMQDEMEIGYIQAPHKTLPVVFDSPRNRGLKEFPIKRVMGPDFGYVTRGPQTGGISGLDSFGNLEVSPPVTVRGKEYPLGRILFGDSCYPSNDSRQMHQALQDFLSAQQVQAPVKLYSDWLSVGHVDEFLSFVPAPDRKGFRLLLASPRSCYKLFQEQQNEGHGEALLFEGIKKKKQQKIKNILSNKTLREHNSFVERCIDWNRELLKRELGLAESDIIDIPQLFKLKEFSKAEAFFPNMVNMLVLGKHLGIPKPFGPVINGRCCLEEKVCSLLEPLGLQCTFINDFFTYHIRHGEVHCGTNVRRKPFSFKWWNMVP

| Structure (SMILES) | IC50 |
| --- | --- |
| COc1cc(C(=O)N2CC3CC[C@@H]2[C@@H]3N)cc2nc(-c3cc4cccc(-c5ccc6c(c5)C(C)(C)OC(=O)N6)c4n3CC3CC3)n(C)c12 (stereo in doubt) [Example 142, 6-(2-(5-((1R,4S)-7-amino-2-azabicyclo[2.2.1]heptane-2-carbonyl)-7-methoxy-1-methyl-1H-benzo[d]imidazol-2-yl)-1-(cyclopropylmethyl)-1H-indol-7-yl)-4,4-dimethyl-1,4-dihydro-2H-benzo[d][1,3]oxazin-2-one] | 180 nM |
| COc1cc(C(=O)N2C[C@H]3CC[C@@H]2[C@@H]3N)cc2nc(-c3cc4cccc(C5CCOCC5)c4n3CC3CC3)n(C)c12 [Example 3, ((1R,4R,7R)-7-amino-2-azabicyclo[2.2.1]heptan-2-yl)(2-(1-(cyclopropylmethyl)-7-(tetrahydro-2H-pyran-4-yl)-1H-indol-2-yl)-7-methoxy-1-methyl-1H-benzo[d]imidazol-5-yl)methanone] | 100 nM |
| COc1cc(C(=O)N2C[C@H]3CC[C@@H]2[C@@H]3N)cc2nc(-c3cc4cccc(C5CCNCC5)c4n3CC3CC3)n(C)c12 [Example 4, (1R,4R,7R)-2-{2-[1-(cyclopropylmethyl)-7-(piperidin-4-yl)-1H-indol-2-yl]-7-methoxy-1-methyl-1H-1,3-benzodiazole-5-carbonyl}-2-azabicyclo[2.2.1]heptan-7-amine] | 30 nM |
| CCCc1cccc2cc(-c3nc4cc(C(=O)N5C[C@H]6CC[C@@H]5[C@@H]6N)cc(OC)c4n3C)n(CC3CC3)c12 [Example 5, (1R,4R,7R)-2-{2-[1-(cyclopropylmethyl)-7-propyl-1H-indol-2-yl]-7-methoxy-1-methyl-1H-1,3-benzodiazole-5-carbonyl}-2-azabicyclo[2.2.1]heptan-7-amine] | 187 nM |
| COc1cc(C(=O)N2C[C@H]3CC[C@@H]2[C@@H]3N)cc2nc(-c3cc4cccc(C5CCCC5)c4n3CC3CC3)n(C)c12 [Example 6, (1R,4R,7R)-2-{2-[7-cyclopentyl-1-(cyclopropylmethyl)-1H-indol-2-yl]-7-methoxy-1-methyl-1H-1,3-benzodiazole-5-carbonyl}-2-azabicyclo[2.2.1]heptan-7-amine] | 190 nM |
| COc1cc(C(=O)N2C[C@H]3CC[C@@H]2[C@@H]3N)cc2nc(-c3cc4cccc(C5CCC5)c4n3CC3CC3)n(C)c12 [Example 7, (1R,4R,7R)-2-{2-[7-cyclobutyl-1-(cyclopropylmethyl)-1H-indol-2-yl]-7-methoxy-1-methyl-1H-1,3-benzodiazole-5-carbonyl}-2-azabicyclo[2.2.1]heptan-7-amine] | 158 nM |
| COc1cc(C(=O)N2C[C@H]3CC[C@@H]2[C@@H]3N)cc2nc(-c3cc4cccc(C5CNC5)c4n3CC3CC3)n(C)c12 [Example 8, (1R,4R,7R)-2-{2-[7-(azetidin-3-yl)-1-(cyclopropylmethyl)-1H-indol-2-yl]-7-methoxy-1-methyl-1H-1,3-benzodiazole-5-carbonyl}-2-azabicyclo[2.2.1]heptan-7-amine] | 73 nM |
| COc1cc(C(=O)N2C[C@H]3CC[C@@H]2[C@@H]3N)cc2nc(-c3cc4cccc(C5CC(N)C5)c4n3CC3CC3)n(C)c12 (stereo partly drawn) [Example 9, (1R,4R,7R)-2-{2-[7-(3-aminocyclobutyl)-1-(cyclopropylmethyl)-1H-indol-2-yl]-7-methoxy-1-methyl-1H-1,3-benzodiazole-5-carbonyl}-2-azabicyclo[2.2.1]heptan-7-amine] | 40 nM |
| COc1cc(C(=O)N2C[C@H]3CC[C@@H]2[C@@H]3N)cc2nc(-c3cc4cccc(CC5CCNCC5)c4n3CC3CC3)n(C)c12 [Example 10, (1R,4R,7R)-2-{2-[1-(cyclopropylmethyl)-7-[(piperidin-4-yl)methyl]-1H-indol-2-yl]-7-methoxy-1-methyl-1H-1,3-benzodiazole-5-carbonyl}-2-azabicyclo[2.2.1]heptan-7-amine] | 128 nM |
| COc1cc(C(=O)N2C[C@H]3CC[C@@H]2[C@@H]3N)cc2nc(-c3cc4cccc(CCCN)c4n3CC3CC3)n(C)c12 [Example 11, (1R,4R,7R)-2-{2-[7-(3-aminopropyl)-1-(cyclopropylmethyl)-1H-indol-2-yl]-7-methoxy-1-methyl-1H-1,3-benzodiazole-5-carbonyl}-2-azabicyclo[2.2.1]heptan-7-amine] | 48 nM |
| COc1cc(C(=O)N2C[C@H]3CC[C@@H]2[C@@H]3N)cc2nc(-c3cc4cccc(C5CCCNC5)c4n3CC3CC3)n(C)c12 (stereo partly drawn) [Example 12, (1R,4R,7R)-2-{2-[1-(cyclopropylmethyl)-7-(piperidin-3-yl)-1H-indol-2-yl]-7-methoxy-1-methyl-1H-1,3-benzodiazole-5-carbonyl}-2-azabicyclo[2.2.1]heptan-7-amine] | 73 nM |
| COc1cc(C(=O)N2C[C@H]3CC[C@@H]2[C@@H]3N)cc2nc(-c3cc4cccc(C5CCC(N)CC5)c4n3CC3CC3)n(C)c12 (stereo partly drawn) [Example 13, (1R,4R,7R)-2-{2-[7-(4-aminocyclohexyl)-1-(cyclopropylmethyl)-1H-indol-2-yl]-7-methoxy-1-methyl-1H-1,3-benzodiazole-5-carbonyl}-2-azabicyclo[2.2.1]heptan-7-amine] | 16 nM |
| COc1cc(C(=O)N2C[C@H]3CC[C@@H]2[C@@H]3N)cc2nc(-c3cc4cccc(C[C@H]5CC[C@H](N)CC5)c4n3CC3CC3)n(C)c12 [Example 14, ((1R,4R,7R)-7-amino-2-azabicyclo[2.2.1]heptan-2-yl)(2-(7-(((trans)-4-aminocyclohexyl)methyl)-1-(cyclopropylmethyl)-1H-indol-2-yl)-7-methoxy-1-methyl-1H-benzo[d]imidazol-5-yl)methanone] | 38 nM |
| COc1cc(C(=O)N2C[C@H]3CC[C@@H]2[C@@H]3N)cc2nc(-c3cc4cccc(C5CCN(C(C)=O)CC5)c4n3CC3CC3)n(C)c12 [Example 15, 1-[4-(2-{5-[(1R,4R,7R)-7-amino-2-azabicyclo[2.2.1]heptane-2-carbonyl]-7-methoxy-1-methyl-1H-1,3-benzodiazol-2-yl}-1-(cyclopropylmethyl)-1H-indol-7-yl)piperidin-1-yl]ethan-1-one] | 20 nM |
| COc1cc(C(=O)N2C[C@H]3CC[C@@H]2[C@@H]3N)cc2nc(-c3cc4cccc(CCCCCN)c4n3CC3CC3)n(C)c12 [Example 16, (1R,4R,7R)-2-{2-[7-(5-aminopentyl)-1-(cyclopropylmethyl)-1H-indol-2-yl]-7-methoxy-1-methyl-1H-1,3-benzodiazole-5-carbonyl}-2-azabicyclo[2.2.1]heptan-7-amine] | 39 nM |
| COc1cc(C(=O)N2C[C@H]3CC[C@@H]2[C@@H]3N)cc2nc(-c3cc4cccc(CCCCCCN)c4n3CC3CC3)n(C)c12 [Example 17, (1R,4R,7R)-2-{2-[7-(6-aminohexyl)-1-(cyclopropylmethyl)-1H-indol-2-yl]-7-methoxy-1-methyl-1H-1,3-benzodiazole-5-carbonyl}-2-azabicyclo[2.2.1]heptan-7-amine] | 56 nM |
| COc1cc(C(=O)N2C[C@H]3CC[C@@H]2[C@@H]3N)cc2nc(-c3cc4cccc(CCC#N)c4n3CC3CC3)n(C)c12 [Example 19, 3-(2-{5-[(1R,4R,7R)-7-amino-2-azabicyclo[2.2.1]heptane-2-carbonyl]-7-methoxy-1-methyl-1H-1,3-benzodiazol-2-yl}-1-(cyclopropylmethyl)-1H-indol-7-yl)propanenitrile] | 90 nM |
| COc1cc(C(=O)N2C[C@H]3CC[C@@H]2[C@@H]3N)cc2nc(-c3cc4cccc(CCC(N)=O)c4n3CC3CC3)n(C)c12 [Example 20, 3-(2-{5-[(1R,4R,7R)-7-amino-2-azabicyclo[2.2.1]heptane-2-carbonyl]-7-methoxy-1-methyl-1H-1,3-benzodiazol-2-yl}-1-(cyclopropylmethyl)-1H-indol-7-yl)propanamide] | 47 nM |
| COc1cc(C(=O)N2C[C@H]3CC[C@@H]2[C@@H]3N)cc2nc(-c3cc4cccc(CCC(C)(C)O)c4n3CC3CC3)n(C)c12 [Example 21, 4-(2-{5-[(1R,4R,7R)-7-amino-2-azabicyclo[2.2.1]heptane-2-carbonyl]-7-methoxy-1-methyl-1H-1,3-benzodiazol-2-yl}-1-(cyclopropylmethyl)-1H-indol-7-yl)-2-methylbutan-2-ol] | 86 nM |

Same assay, conditions: human PAD4, rapid-fire mass spectrum (RFMS) assay; 5 nM hPAD4, 250 μM BAEE; read-out: hPAD4 RFMS IC50

| Structure (SMILES) | IC50 |
| --- | --- |
| COc1cc(C(=O)N2C[C@H]3CC[C@@H]2[C@@H]3N)cc2nc(-c3cc4cccc(Br)c4n3CC3CC3)n(C)c12 [Example 1, ((1R,4R,7R)-7-amino-2-azabicyclo[2.2.1]heptan-2-yl)(2-(7-bromo-1-(cyclopropylmethyl)-1H-indol-2-yl)-7-methoxy-1-methyl-1H-benzo[d]imidazol-5-yl)methanone] | 162 nM |
| COc1cc(C(=O)N2C[C@H]3CC[C@@H]2[C@@H]3N)cc2nc(-c3cc4cccc(CCCO)c4n3CC3CC3)n(C)c12 [Example 2, ((1R,4R,7R)-7-amino-2-azabicyclo[2.2.1]heptan-2-yl)(2-(1-(cyclopropylmethyl)-7-(3-hydroxypropyl)-1H-indol-2-yl)-7-methoxy-1-methyl-1H-benzo[d]imidazol-5-yl)methanone] | 32 nM |
